The NIST ThermoML archive (doi:10.1016/j.fluid.2006.12.001)

Assay: xn = mol fraction of the nth substance listed
Conditions: 303.2 K; 101 kPa; Liquid; Taylor dispersion method; x1 = 0

| Compound | binary diffusion coefficient [m2/s] |
| --- | --- |
| CCCCCCCC[n+]1ccn(C)c1.F[B-](F)(F)F [1-methyl-3-octylimidazolium tetrafluoroborate] + O | 1.14e-09 |
| CCCCn1cc[n+](C)c1.F[B-](F)(F)F [1-butyl-3-methylimidazolium tetrafluoroborate] + O | 1.3e-09 |
| CCn1cc[n+](C)c1.F[P-](F)(F)(F)(F)F [1-ethyl-3-methylimidazolium hexafluorophosphate] + O | 1.41e-09 |
| CCCCCCn1cc[n+](C)c1.F[P-](F)(F)(F)(F)F [1-hexyl-3-methylimidazolium hexafluorophosphate] + O | 1.11e-09 |
| CCn1cc[n+](C)c1.F[B-](F)(F)F [1-ethyl-3-methylimidazolium tetrafluoroborate] + O | 1.52e-09 |
| CCCCn1cc[n+](C)c1.F[P-](F)(F)(F)(F)F [1-butyl-3-methylimidazolium hexafluorophosphate] + O | 1.25e-09 |
| CCCCCCCC[n+]1ccn(C)c1.F[P-](F)(F)(F)(F)F [1-octyl-3-methylimidazolium hexafluorophosphate] + O | 1.06e-09 |
| CCCCCCn1cc[n+](C)c1.F[B-](F)(F)F [1-hexyl-3-methylimidazolium tetrafluoroborate] + O | 1.24e-09 |
